# PMC11676196, “Inhibition of TFAM-Mediated Mitophagy by Oroxylin A Restored Sorafenib Sensitivity Under Hypoxia Conditions in HepG2 Cells” (Pharmaceuticals, 2024)
# Target: T1, TFAM (mitochondrial transcription factor A) (Homo sapiens, UniProt Q00059)
# T1 construct: endogenous protein in intact human HepG2 cells
# T1 sequence (Q00059 43-246): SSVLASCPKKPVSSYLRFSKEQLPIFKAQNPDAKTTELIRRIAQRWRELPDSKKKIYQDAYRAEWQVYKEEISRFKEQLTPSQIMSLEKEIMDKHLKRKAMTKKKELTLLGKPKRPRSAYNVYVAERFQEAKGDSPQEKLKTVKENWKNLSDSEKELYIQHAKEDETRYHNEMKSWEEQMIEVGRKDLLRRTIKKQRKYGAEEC
# Experiment: cellular thermal shift assay (CETSA), Western blot
# Type: cell-based
# Details: intact cells incubated 2 h with or without OA, heated 3 min at 43 to 70 °C; rightward shift of melting curve
compound,measurement,value
COc1c(O)cc2oc(-c3ccccc3)cc(=O)c2c1O [Oroxylin A],thermal shift,thermal shift assays showed a significant rightward shift in the thermal melting curve upon OA administration
